# According to article PMC10045663, “Synthesis, In Vitro Biological Evaluation of Antiproliferative and Neuroprotective Effects and In Silico Studies of Novel 16E-Arylidene-5α,6α-epoxyepiandrosterone Derivatives” (Biomedicines, 2023):
# Tests used:
# Format in all cases: cell-based
# [1] = tested on: PC-3 cells (androgen-independent prostatic cancer); assay: MTT cell proliferation assay, PC-3 cells; settings: 72 h
# [2] = tested on: LNCaP cells (androgen-dependent prostatic cancer); assay: MTT cell proliferation assay, LNCaP cells; settings: 72 h
# [3] = tested on: all cell lines (NHDF, PNT1A, N27, LNCaP, PC-3, MCF-7); assay: MTT preliminary screening, all cell lines taken together; settings: 50 µM, 72 h
# Procedure: LNCaP, PC-3, MCF-7, PNT1A, N27, and NHDF cells were obtained from the American Type Culture Collection (ATCC; Manassas, VA, USA) and were cultured in 75 cm^2 culture flasks at 37 °C in a humidified air incubator with 5% CO2. LNCaP, PC-3, PNT1A, and N27 cells, respectively, were cultured in RPMI 1640 medium (Sigma-Aldrich, Inc. St. Louis, MO, USA) with 10% fetal bovine serum (FBS; Sigma-Aldrich, Inc. St. Louis, MO, USA) and 1% of the antibiotic mixture of 10,000 U/mL penicillin G and […] streptomycin (Sp, Sigma-Aldrich, Inc. St. Louis, MO, USA). MCF-7 cells were cultured in DMEM medium (Sigma-Aldrich, Inc. St. Louis, MO, USA) supplemented with 10% fetal bovine serum (FBS; Sigma-Aldrich, Inc. St. Louis, MO, USA) and 1% antibiotic/antimycotic (10,000 U/mL penicillin G, […] streptomycin, and 25 µg/mL amphotericin B: Ab, Sigma-Aldrich, Inc. St. Louis, MO, USA). Finally, NHDF cells were cultured in RPMI 1640 medium supplemented with 10% FBS, 2 mM L-glutamine, 10 mM HEPES, 1 mM sodium pyruvate, and 1% of the antibiotic/antimycotic Ab, and these cells were used in passages 10th to 14th. For all cell types, the medium was renewed every 2 days until cells nearly reached the confluence state. When cells reach approximately 90–95% confluence, they are gently detached by trypsinization (trypsin-EDTA solution: 0.125 g/L of trypsin and 0.02 g/L of EDTA). Before each experiment, viable cells were counted in a Neubauer chamber by a trypan-blue exclusion assay and adequately diluted in the appropriate complete cell culture medium.
# All tested compounds were dissolved in dimethyl sulfoxide (DMSO; Sigma-Aldrich, Inc. St. Louis, MO, USA) at a concentration of 10 mM and stored at 4 °C. From the mother-solutions, the diluted solutions of the compounds, in different concentrations, were prepared in the respective complete culture medium before each experiment.
# After reaching a confluence state, cells were trypsinized and counted by the trypan-blue exclusion assay and then seeded with an initial density of 2 × 10^4 cells/mL in 96-well culture plates (Nunc, Apogent, Denmark) and left to adhere and grow for 48 h. Subsequently, the medium was removed, and the cells were treated with compound solutions (10 and 50 µM for preliminary studies and 0.01, 0.1, 1, 10, 50, and 100 µM for concentration-response studies) in complete culture medium for 72 h. 5-Fluorouracil (5-FU) was used as a positive control, and untreated cells were used as the negative control. Compounds leading to cell proliferation relative to control clearly below 50%, at 10 µM, or clearly below 25%, at 50 µM, in the screening studies were selected to concentration-response studies in tumoral cell lines. Each experiment was performed in quadruplicate and independently at least two times. The in vitro antiproliferative effects were evaluated by the MTT assay (Sigma-Aldrich, Inc. St. Louis, MO, USA). After the incubation period, the medium was removed, and 100 µL of phosphate buffer saline (PBS, NaCl 137 mM; KCl 2.7 mM; Na2HPO4 10 mM; and KH2PO4 1.8 mM in deionized water with a pH adjusted to 7.4) were used to wash the cells. Then, 100 µL of the MTT solution (5 mg/mL) was prepared in the appropriate serum-free medium and added to each well, followed by incubation for 4 h at 37 °C. Hereafter, the MTT containing medium was removed, and the formazan crystals were dissolved in DMSO. Then, the absorbance was measured at 570 nm using a xMarkTM microplate spectrophotometer from BIO-RAD Laboratories. Cell viability values were expressed as percentages relative to the negative control.
# MCF-7 cells [4] = assay: Nearest neighbor distance analysis with ImageJ; settings: MCF-7, 1 and 10 µM, 48 h
# Text: The nuclear measurements were achieved by converting 16-bit photomicrographs of Hoechst 33342-stained nuclei in different studied conditions into 8-bit images. Then, these imagens were autothresholded to binary photos using the default “Make binary” function of ImageJ (v. 1.49) software (NIH Image, Bethesda, MD, USA). Cell nuclei that are touching were separated and fragments were discarded based on area through “Analyze Particle” function. This function also provides several other information, such as nuclear area (NA), circumference, and form factor [26]. Furthermore, the “Nearest Neighbor Distance” (NND) was determined. This function allows measuring the distance between each cell nucleus and the nearest ones, providing information about cell distribution.
# MCF-7 cells [5] = assay: PI incorporation (propidium iodide staining); settings: 48 h
# Procedure: After 48 h of being seeded at the same conditions explained in the previous (Section 2.2.4), MCF-7 cells were treated with the steroidal derivatives 19 and 5-FU at 1 and 10 µM and maintained in culture for 48 h. Untreated cells were also used as a negative control. Subsequently, cells were incubated with 20 µL/per well of a propidium iodide solution (PI; 1 mg/mL in PBS; Sigma-Aldrich Co. LLC) for 25 min at 37 °C. Then, the medium was removed, and the cells were fixed with 10% formalin for 15 min at room temperature. Cells were washed three times with PBS and incubated with 30 µL/per coverslip of Hoechst-33342 (1:500) for 10 min. After incubation, cells were washed three times with PBS. Coverslips were mounted on a drop of the fluoroshield mounting medium on a microscope slide, left to dry for 24 h, and then visualized in a Zeiss Axio Imager A1 microscope with the 40× objective.
# [6] = tested on: NHDF cells (normal human dermal fibroblasts); assay: MTT cell proliferation assay, NHDF cells; settings: 72 h, non-tumoral cells, read-out: Estimated IC50, NHDF
substance,measurement,setting,value
"(E)-16-(2,3-Dichlorobenzylidene)-3-hydroxy-5α ,6α -epoxy-10,13-dimethyl-1,3,4,7,8,9,10,11,12,13,15,16-dodecahydro-2H-cyclopenta[α ]phenanthren-17(14H)-one [Compound 19]",IC50,"[1]; MTT, tumoral cells, read-out: Estimated IC50, PC-3",19 µM
same,decrease on cell proliferation relative to the control,"[1]; PC-3, 50 µM",higher than 75%
same,effect on LNCaP cell proliferation,"[2]; LNCaP, 10 µM",no relevant effects
same,decrease in LNCaP cell proliferation,"[2]; LNCaP, 50 µM",higher than 75%
same,IC50,"[2]; MTT, tumoral cells, read-out: Estimated IC50, LNCaP",12.8 µM
same,relative cell proliferation,[3],≤ 50%
same,"cell distribution (nearest neighbor distance, NND)",MCF-7 cells [4],more random distribution with nuclei more spaced
same,PI-positive cells relative to the negative control,"MCF-7 cells [5]; MCF-7, 1 µM",no significant effect
same,PI-positive cells relative to the negative control,"MCF-7 cells [5]; MCF-7, 10 µM",significantly increase
same,percentage of PI incorporation compared with the positive control (5-FU),"MCF-7 cells [5]; MCF-7, 10 µM",about three times
same,IC50,[6],18.7 µM
